# Source: patent US12258328B2, “6-membered heteroaryl-containing aminopyridine compounds as EGFR inhibitors” (YUHAN CORPORATION, priority 2021, dated 2025)
# Like-named read-outs stand apart in the source and are kept apart here.
# Legend:
# EGFR del19/C797S = EGFR del19/C797S (Homo sapiens, UniProt P00533, C797S/DEL746-750); experiment: Biochemical EGFR kinase assay (Lance Ultra TR-FRET), double mutant del19/C797S
# Method in brief: (§1)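 Enzyme reactions lasted 1 hour at room temperature with test compounds between 0.003 and 10 μM, followed by 10 mM EDTA quench.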
# EGFR del19/T790M/C797S = EGFR del19/T790M/C797S (Homo sapiens, UniProt P00533, C797S/DEL746-750/T790M); experiment: Biochemical EGFR kinase assay (Lance Ultra TR-FRET), triple mutant del19/T790M/C797S
# Sequence of EGFR del19/T790M/C797S (P00533 with tags, fused parts or gaps DEL746-750/T790M/C797S): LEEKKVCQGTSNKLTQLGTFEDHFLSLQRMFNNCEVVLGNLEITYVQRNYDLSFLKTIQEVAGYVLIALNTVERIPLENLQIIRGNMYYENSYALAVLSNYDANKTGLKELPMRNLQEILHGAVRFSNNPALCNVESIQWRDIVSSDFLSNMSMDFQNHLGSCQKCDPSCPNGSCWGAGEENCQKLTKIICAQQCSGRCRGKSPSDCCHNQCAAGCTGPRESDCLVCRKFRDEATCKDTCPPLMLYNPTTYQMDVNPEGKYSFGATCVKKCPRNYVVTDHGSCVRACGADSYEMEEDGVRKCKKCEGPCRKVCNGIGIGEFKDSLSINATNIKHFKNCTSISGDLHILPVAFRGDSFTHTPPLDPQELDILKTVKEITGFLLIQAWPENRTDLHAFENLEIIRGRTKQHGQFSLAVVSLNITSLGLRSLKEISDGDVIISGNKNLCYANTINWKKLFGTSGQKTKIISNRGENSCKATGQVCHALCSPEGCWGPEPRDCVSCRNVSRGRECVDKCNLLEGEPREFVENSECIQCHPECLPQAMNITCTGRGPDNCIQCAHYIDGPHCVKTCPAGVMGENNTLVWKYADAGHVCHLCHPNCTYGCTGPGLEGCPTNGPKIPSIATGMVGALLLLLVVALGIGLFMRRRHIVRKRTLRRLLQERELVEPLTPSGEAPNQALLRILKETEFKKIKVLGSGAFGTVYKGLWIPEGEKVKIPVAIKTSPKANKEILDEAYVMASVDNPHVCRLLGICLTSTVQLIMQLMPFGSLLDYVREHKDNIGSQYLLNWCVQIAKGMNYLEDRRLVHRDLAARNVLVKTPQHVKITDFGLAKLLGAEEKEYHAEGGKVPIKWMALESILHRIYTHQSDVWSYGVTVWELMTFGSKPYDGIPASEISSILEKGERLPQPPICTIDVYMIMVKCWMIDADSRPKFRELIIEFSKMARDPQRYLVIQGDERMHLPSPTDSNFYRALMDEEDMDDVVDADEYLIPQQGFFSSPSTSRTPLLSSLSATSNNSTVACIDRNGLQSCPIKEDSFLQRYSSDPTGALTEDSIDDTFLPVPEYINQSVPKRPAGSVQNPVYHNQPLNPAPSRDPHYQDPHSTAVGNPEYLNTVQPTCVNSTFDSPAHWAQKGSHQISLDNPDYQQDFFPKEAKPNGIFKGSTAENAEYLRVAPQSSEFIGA
# Method in brief: as §1
# EGFR L858R/T790M/C797S = EGFR L858R/T790M/C797S (Homo sapiens, UniProt P00533, C797S/L858R/T790M); experiment: Biochemical EGFR kinase assay (Lance Ultra TR-FRET), triple mutant L858R/T790M/C797S
# Sequence of EGFR L858R/T790M/C797S (P00533 25-1210 T790M/C797S/L858R): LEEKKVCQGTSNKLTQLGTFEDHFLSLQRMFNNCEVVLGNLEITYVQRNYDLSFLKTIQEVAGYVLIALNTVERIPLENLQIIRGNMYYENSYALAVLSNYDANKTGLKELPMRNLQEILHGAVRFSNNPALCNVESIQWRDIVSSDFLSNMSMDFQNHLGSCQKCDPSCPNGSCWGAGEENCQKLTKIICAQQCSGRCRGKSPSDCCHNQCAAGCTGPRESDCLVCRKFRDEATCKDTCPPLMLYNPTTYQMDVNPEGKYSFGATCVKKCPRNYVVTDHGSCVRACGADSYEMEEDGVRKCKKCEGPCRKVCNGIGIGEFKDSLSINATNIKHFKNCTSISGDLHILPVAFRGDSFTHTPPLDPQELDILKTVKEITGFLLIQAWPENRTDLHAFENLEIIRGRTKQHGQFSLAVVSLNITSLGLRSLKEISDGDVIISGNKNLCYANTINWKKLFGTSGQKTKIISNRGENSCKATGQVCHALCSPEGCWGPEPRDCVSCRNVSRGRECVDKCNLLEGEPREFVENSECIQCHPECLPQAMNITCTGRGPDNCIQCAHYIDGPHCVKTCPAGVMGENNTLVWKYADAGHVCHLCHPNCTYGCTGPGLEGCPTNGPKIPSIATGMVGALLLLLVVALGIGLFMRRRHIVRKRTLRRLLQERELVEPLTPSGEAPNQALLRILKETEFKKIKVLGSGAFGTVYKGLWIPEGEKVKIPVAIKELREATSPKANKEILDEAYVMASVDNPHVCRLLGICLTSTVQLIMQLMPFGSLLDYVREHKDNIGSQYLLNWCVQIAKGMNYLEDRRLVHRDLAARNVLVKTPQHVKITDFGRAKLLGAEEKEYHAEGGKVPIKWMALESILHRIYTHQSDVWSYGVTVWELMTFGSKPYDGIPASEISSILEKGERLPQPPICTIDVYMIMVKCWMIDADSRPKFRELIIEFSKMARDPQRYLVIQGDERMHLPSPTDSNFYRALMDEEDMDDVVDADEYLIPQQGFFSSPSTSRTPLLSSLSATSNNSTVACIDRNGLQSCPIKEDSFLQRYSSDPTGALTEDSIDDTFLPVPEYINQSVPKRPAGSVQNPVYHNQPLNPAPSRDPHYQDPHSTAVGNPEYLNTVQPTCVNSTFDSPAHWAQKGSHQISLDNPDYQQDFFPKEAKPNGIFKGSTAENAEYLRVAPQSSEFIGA
# Method in brief: as §1
# EGFR wildtype = EGFR wildtype (Homo sapiens, UniProt P00533); experiment: Biochemical EGFR kinase assay (Lance Ultra TR-FRET), wildtype
# Sequence of EGFR wildtype (P00533 25-1210): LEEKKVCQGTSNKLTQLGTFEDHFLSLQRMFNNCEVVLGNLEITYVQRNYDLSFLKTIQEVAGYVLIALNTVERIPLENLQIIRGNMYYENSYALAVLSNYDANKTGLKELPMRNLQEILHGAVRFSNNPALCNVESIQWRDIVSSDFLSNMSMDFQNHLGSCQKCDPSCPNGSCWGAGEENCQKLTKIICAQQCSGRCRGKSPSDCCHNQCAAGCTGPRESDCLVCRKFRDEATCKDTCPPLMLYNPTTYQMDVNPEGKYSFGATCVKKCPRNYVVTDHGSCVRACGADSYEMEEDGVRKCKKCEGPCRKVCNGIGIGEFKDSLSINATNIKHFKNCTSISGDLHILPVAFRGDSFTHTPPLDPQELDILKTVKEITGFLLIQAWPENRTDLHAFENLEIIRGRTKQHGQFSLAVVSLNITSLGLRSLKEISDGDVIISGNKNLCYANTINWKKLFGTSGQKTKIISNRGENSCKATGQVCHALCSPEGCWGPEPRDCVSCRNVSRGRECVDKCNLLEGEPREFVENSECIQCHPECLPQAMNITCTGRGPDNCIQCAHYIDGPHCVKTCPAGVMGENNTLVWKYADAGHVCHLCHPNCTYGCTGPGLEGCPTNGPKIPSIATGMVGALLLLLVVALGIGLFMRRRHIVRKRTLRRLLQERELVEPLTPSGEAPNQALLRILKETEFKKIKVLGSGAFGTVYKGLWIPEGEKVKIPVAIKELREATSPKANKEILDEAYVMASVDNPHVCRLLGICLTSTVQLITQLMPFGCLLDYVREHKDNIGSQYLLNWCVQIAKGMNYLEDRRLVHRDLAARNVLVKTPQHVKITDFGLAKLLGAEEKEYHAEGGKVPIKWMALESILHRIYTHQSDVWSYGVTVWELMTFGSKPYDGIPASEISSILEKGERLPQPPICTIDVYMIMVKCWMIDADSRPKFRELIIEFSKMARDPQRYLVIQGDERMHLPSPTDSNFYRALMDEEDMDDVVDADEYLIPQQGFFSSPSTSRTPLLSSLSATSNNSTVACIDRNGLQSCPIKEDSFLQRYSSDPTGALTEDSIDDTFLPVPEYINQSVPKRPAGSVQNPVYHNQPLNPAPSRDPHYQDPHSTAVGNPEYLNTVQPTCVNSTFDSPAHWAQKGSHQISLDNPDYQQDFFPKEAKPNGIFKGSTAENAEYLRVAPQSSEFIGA
# Method in brief: as §1
# EGFR L858R/C797S = EGFR L858R/C797S (Homo sapiens, UniProt P00533, C797S/L858R); experiment: Biochemical EGFR kinase assay (Lance Ultra TR-FRET), double mutant L858R/C797S
# Method in brief: as §1
# [1] = IC50 del19/C797S (nM) 100 μM ATP, 100 μM ATP
# [2] = Km ATP, read-out: IC50 del19/C797S (nM) Km ATP
# [3] = IC50 del19/T790M/C797S (nM) 100 μM ATP, 100 μM ATP
# [4] = Km ATP, read-out: IC50 del19/T790M/C797S (nM) Km ATP
# [5] = IC50 L858R/T790M/C797S (nM) 100 μM ATP, 100 μM ATP
# [6] = Km ATP, read-out: IC50 L858R/T790M/C797S (nM) Km ATP
# [7] = IC50 WT (nM) 100 μM ATP, 100 μM ATP
# [8] = Km ATP, read-out: IC50 WT (nM) Km ATP
# [9] = IC50 L858R/C797S (nM) 100 μM ATP, 100 μM ATP
# [10] = Km ATP, read-out: IC50 L858R/C797S (nM) Km ATP
# Sequence of EGFR del19/C797S (P00533 with tags, fused parts or gaps DEL746-750/C797S): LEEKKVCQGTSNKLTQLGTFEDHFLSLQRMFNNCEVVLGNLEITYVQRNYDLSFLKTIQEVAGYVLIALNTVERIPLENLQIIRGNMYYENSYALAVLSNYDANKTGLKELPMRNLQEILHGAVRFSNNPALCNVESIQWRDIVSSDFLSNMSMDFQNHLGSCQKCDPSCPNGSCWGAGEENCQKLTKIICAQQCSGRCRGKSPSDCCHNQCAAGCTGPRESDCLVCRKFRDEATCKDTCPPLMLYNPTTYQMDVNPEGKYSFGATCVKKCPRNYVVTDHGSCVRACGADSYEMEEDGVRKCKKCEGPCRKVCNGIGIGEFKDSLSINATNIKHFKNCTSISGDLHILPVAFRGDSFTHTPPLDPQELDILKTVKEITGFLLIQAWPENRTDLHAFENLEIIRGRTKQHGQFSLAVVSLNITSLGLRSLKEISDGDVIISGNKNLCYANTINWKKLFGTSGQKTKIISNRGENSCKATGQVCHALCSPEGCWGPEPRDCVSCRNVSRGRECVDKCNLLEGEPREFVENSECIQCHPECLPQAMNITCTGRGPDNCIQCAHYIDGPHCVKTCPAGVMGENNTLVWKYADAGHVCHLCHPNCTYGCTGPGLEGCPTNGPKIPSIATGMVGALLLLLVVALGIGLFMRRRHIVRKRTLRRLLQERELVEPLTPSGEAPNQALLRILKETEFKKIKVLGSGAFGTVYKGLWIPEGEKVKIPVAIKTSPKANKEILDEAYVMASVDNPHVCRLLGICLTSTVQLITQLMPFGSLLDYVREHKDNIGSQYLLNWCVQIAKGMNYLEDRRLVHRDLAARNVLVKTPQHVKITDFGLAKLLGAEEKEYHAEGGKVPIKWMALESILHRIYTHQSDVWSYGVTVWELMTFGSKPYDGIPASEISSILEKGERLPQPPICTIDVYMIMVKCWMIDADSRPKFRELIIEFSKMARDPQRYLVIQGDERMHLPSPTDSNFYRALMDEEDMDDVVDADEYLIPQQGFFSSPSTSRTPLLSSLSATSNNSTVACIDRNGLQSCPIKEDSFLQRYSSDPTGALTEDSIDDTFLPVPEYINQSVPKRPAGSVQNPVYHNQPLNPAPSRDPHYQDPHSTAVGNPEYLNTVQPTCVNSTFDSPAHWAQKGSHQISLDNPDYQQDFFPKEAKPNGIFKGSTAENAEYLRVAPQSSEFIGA
Compound,IC50 (EGFR del19/C797S; [1]),IC50 (EGFR del19/C797S; [2]),IC50 (EGFR del19/T790M/C797S; [3]),IC50 (EGFR del19/T790M/C797S; [4]),IC50 (EGFR L858R/T790M/C797S; [5]),IC50 (EGFR L858R/T790M/C797S; [6]),IC50 (EGFR wildtype; [7]),IC50 (EGFR wildtype; [8]),IC50 (EGFR L858R/C797S; [9]),IC50 (EGFR L858R/C797S; [10])
"CC(C)(O)[C@H]1CC[C@@H](Nc2cc(Nc3ccnc(-c4cnn(S(=O)(=O)C5CC5)c4)n3)ncc2-c2cc(N3CCC(F)(F)CC3)ccn2)CC1 [Example 103, 2-((1s,4s)-4-((6′-((2-(1-(Cyclopropylsulfonyl)-1H-pyrazol-4-yl)pyrimidin-4-yl)amino)-4-(4,4-difluoropiperidin-1-yl)-[2,3′-bipyridin]-4′-yl)amino)cyclohexyl)propan-2-ol]",66.5 nM,,6.6 nM,,3.9 nM,,> 10000 nM,,654 nM,
"CC(C)(O)c1cc(-c2cnc(Nc3ccnc(-c4cnn(S(=O)(=O)C5CC5)c4)n3)cc2N[C@H]2CC[C@@](C)(O)CC2)ncc1F [Example 104, (1s,4s)-4-((6′-((2-(1-(Cyclopropylsulfonyl)-1H-pyrazol-4-yl)pyrimidin-4-yl)amino)-5-fluoro-4-(2-hydroxypropan-2-yl)-[2,3′-bipyridin]-4′-yl)amino)-1-methylcyclohexan-1-ol]",3.1 nM,2.2 nM,1.8 nM,1.1 nM,0.8 nM,0.6 nM,> 10000 nM,21.9 nM,21.6 nM,0.9 nM
"CC(C)(O)c1cc(-c2cnc(Nc3ccnc(-c4cnn(S(=O)(=O)C5CC5)c4)n3)cc2N[C@H]2CC[C@@H](C(C)(C)O)CC2)ncc1F [Example 106, 2-(6′-((2-(1-(Cyclopropylsulfonyl)-1H-pyrazol-4-yl)pyrimidin-4-yl)amino)-5-fluoro-4′-(((1s,4s)-4-(2-hydroxypropan-2-yl)cyclohexyl)amino)-[2,3′-bipyridin]-4-yl)propan-2-ol]",11.2 nM,,8.6 nM,6.2 nM,4.1 nM,2.6 nM,3710 nM,37.8 nM,9.6 nM,4.1 nM
"CN(C)C[C@H]1CC[C@@H](Nc2cc(Nc3ccnc(-c4cnn(S(=O)(=O)C5CC5)c4)n3)ncc2-c2cc(C(C)(C)O)c(F)cn2)CC1 [Example 107, 2-(6′-((2-(1-(Cyclopropylsulfonyl)-1H-pyrazol-4-yl)pyrimidin-4-yl)amino)-4′-(((1s,4s)-4-((dimethylamino)methyl)cyclohexyl)amino)-5-fluoro-[2,3′-bipyridin]-4-yl)propan-2-ol]",0.5 nM,0.1 nM,0.4 nM,0.3 nM,0.2 nM,0.2 nM,327 nM,0.4 nM,1.8 nM,0.1 nM
"CC(C)(O)c1ccnc(-c2cnc(Nc3ccnc(-c4cnn(S(=O)(=O)C5CC5)c4)n3)cc2N[C@H]2CC[C@@](C)(O)CC2)c1 [Example 108, (1s,4s)-4-((6′-((2-(1-(Cyclopropylsulfonyl)-1H-pyrazol-4-yl)pyrimidin-4-yl)amino)-4-(2-hydroxypropan-2-yl)-[2,3′-bipyridin]-4′-yl)amino)-1-methylcyclohexan-1-ol]",0.9 nM,0.4 nM,0.4 nM,0.4 nM,0.2 nM,0.2 nM,1860 nM,6.9 nM,3.6 nM,0.4 nM
"CC(C)(O)c1ccnc(-c2cnc(Nc3ccnc(-c4cnn(S(=O)(=O)C5CC5)c4)n3)cc2N[C@H]2CC[C@@H](C(C)(C)O)CC2)c1 [Example 109, 2-(6′-((2-(1-(Cyclopropylsulfonyl)-1H-pyrazol-4-yl)pyrimidin-4-yl)amino)-4′-(((1s,4s)-4-(2-hydroxypropan-2-yl)cyclohexyl)amino)-[2,3′-bipyridin]-4-yl)propan-2-ol]",6.4 nM,0.8 nM,,2 nM,0.5 nM,0.6 nM,1360 nM,5.2 nM,11.1 nM,0.1 nM
"CN(C)C[C@H]1CC[C@@H](Nc2cc(Nc3ccnc(-c4cnn(S(=O)(=O)C5CC5)c4)n3)ncc2-c2cc(C(C)(C)O)ccn2)CC1 [Example 110, 2-(6′-((2-(1-(Cyclopropylsulfonyl)-1H-pyrazol-4-yl)pyrimidin-4-yl)amino)-4′-(((1s,4s)-4-((dimethylamino)methyl)cyclohexyl)amino)-[2,3′-bipyridin]-4-yl)propan-2-ol]",0.3 nM,0.3 nM,0.2 nM,0.1 nM,0.1 nM,0.1 nM,178 nM,0.9 nM,0.5 nM,0.04 nM
"CC(C)(O)c1ccnc(-c2cnc(Nc3ccnc(-c4cnn(S(=O)(=O)C5CC5)c4)n3)cc2N[C@H]2CC[C@@H](CO)CC2)c1 [Example 111, 2-(6′-((2-(1-(Cyclopropylsulfonyl)-1H-pyrazol-4-yl)pyrimidin-4-yl)amino)-4′-(((1s,4s)-4-(hydroxymethyl)cyclohexyl)amino)-[2,3′-bipyridin]-4-yl)propan-2-ol]",0.7 nM,0.2 nM,0.5 nM,0.3 nM,0.2 nM,0.2 nM,198 nM,0.7 nM,0.4 nM,0.03 nM
"C[C@]1(O)CC[C@@H](Nc2cc(Nc3ccnc(-c4cnn(S(=O)(=O)C5CC5)c4)n3)ncc2-c2cc(CN3CCC(F)(F)CC3)ccn2)CC1 [Example 112, (1s,4s)-4-((6′-((2-(1-(Cyclopropylsulfonyl)-1H-pyrazol-4-yl)pyrimidin-4-yl)amino)-4-((4,4-difluoropiperidin-1-yl)methyl)-[2,3′-bipyridin]-4′-yl)amino)-1-methylcyclohexan-1-ol]",23.2 nM,5.1 nM,5.7 nM,4.5 nM,3.6 nM,2 nM,> 10000 nM,11.7 nM,6.9 nM,6.8 nM

# The remaining compounds from weak to strong by IC50 (EGFR del19/C797S; [1]), led by results:
IC50 (EGFR del19/C797S; [1]),IC50 (EGFR del19/C797S; [2]),IC50 (EGFR del19/T790M/C797S; [3]),IC50 (EGFR del19/T790M/C797S; [4]),IC50 (EGFR L858R/T790M/C797S; [5]),IC50 (EGFR L858R/T790M/C797S; [6]),IC50 (EGFR wildtype; [7]),IC50 (EGFR wildtype; [8]),IC50 (EGFR L858R/C797S; [9]),IC50 (EGFR L858R/C797S; [10]),Compound
10.8 nM,6.5 nM,8.1 nM,6.4 nM,5.3 nM,1.3 nM,7220 nM,12.7 nM,24.9 nM,12.9 nM,"O=S(=O)(C1CC1)n1cc(-c2nccc(Nc3cc(N[C@H]4CC[C@@H](CO)CC4)c(-c4cc(N5CCC(F)(F)CC5)ccn4)cn3)n2)cn1 [Example 100, ((1s,4s)-4-((6′-((2-(1-(Cyclopropylsulfonyl)-1H-pyrazol-4-yl)pyrimidin-4-yl)amino)-4-(4,4-difluoropiperidin-1-yl)-[2,3′-bipyridin]-4′-yl)amino)cyclohexyl)methanol]"
9.1 nM,4.6 nM,,2.8 nM,1 nM,0.7 nM,> 10000 nM,21.3 nM,29.9 nM,8.2 nM,"C[C@]1(O)CC[C@@H](Nc2cc(Nc3ccnc(-c4cnn(S(=O)(=O)C5CC5)c4)n3)ncc2-c2cc(N3CCC(F)(F)CC3)ccn2)CC1 [Example 102, (1s,4s)-4-((6′-((2-(1-(Cyclopropylsulfonyl)-1H-pyrazol-4-yl)pyrimidin-4-yl)amino)-4-(4,4-difluoropiperidin-1-yl)-[2,3′-bipyridin]-4′-yl)amino)-1-methylcyclohexan-1-ol]"
3.9 nM,3 nM,3.2 nM,2.1 nM,1.2 nM,,787 nM,5.3 nM,5.4 nM,0.6 nM,"CC(C)(O)c1cc(-c2cnc(Nc3ccnc(-c4cnn(S(=O)(=O)C5CC5)c4)n3)cc2N[C@H]2CC[C@@H](CO)CC2)ncc1F [Example 105, 2-(6′-((2-(1-(Cyclopropylsulfonyl)-1H-pyrazol-4-yl)pyrimidin-4-yl)amino)-5-fluoro-4′-(((1s,4s)-4-(hydroxymethyl)cyclohexyl)amino)-[2,3′-bipyridin]-4-yl)propan-2-ol]"
2.4 nM,2.1 nM,0.9 nM,1.7 nM,0.7 nM,0.4 nM,575 nM,2.2 nM,14.4 nM,2.1 nM,"CN(C)C[C@H]1CC[C@@H](Nc2cc(Nc3ccnc(-c4cnn(S(=O)(=O)C5CC5)c4)n3)ncc2-c2cc(N3CCC(F)(F)CC3)ccn2)CC1 [Example 101, N^6′-(2-(1-(Cyclopropylsulfonyl)-1H-pyrazol-4-yl)pyrimidin-4-yl)-4-(4,4-difluoropiperidin-1-yl)-N^4′-((1s,4s)-4-((dimethylamino)methyl)cyclohexyl)-[2,3′-bipyridine]-4′,6′-diamine]"
0.3 nM,0.3 nM,0.1 nM,0.1 nM,0.1 nM,0.04 nM,61.5 nM,0.3 nM,0.7 nM,0.1 nM,"O=S(=O)(C1CC1)n1cc(-c2nccc(Nc3cc(N[C@H]4CC[C@@H](CO)CC4)c(-c4ccc(CN5CCC(O)CC5)cn4)cn3)n2)cn1 [Example 99, 1-((6′-((2-(1-(Cyclopropylsulfonyl)-1H-pyrazol-4-yl)pyrimidin-4-yl)amino)-4′-(((1s,4s)-4-(hydroxymethyl)cyclohexyl)amino)-[2,3′-bipyridin]-5-yl)methyl) piperidin-4-ol]"
